Data: patent publication US20230285260A1, “USE OF SACCHARIDES FOR CRYOPROTECTION AND RELATED TECHNOLOGY” (Zeltiq Aesthetics, Inc., priority 2017, published 2023)

System: subject's skin
Experiment: pre-cooling skin treatment followed by cooling (freeze) treatment at subject's flank, compared to a control site
Format: in vivo, human
Conditions: general statement of the inventors' finding
Experimental: A mixture of trehalose, water, and […] (PG) was tested as a pre-cooling skin treatment. The mixture was formed by combining 100 grams of trehalose, 100 mL of water, and 40 mL of PG. The trehalose was expected to provide cryoprotection, while the water and PG were expected to act as penetration-enhancing excipients. A first site at a subject's right flank was given the pre-cooling skin treatment, while an opposite second site at the subject's left flank was designated as a control. The pre-cooling treatment at the first site included placing a small piece of rayon fabric soaked in […] of the mixture directly onto the subject's skin and waiting for 12 minutes. It was expected that passive diffusion of trehalose into the subject's skin occurred to some extent during this period. Next, an ultrasound cavitation device (40 kHz) was moved top-to-bottom and bottom-to-top over the subject's skin at the first site for 3 minutes. During this period, 5 mL of the mixture was poured over the subject's skin at the first site.
After the pre-cooling skin treatment at the first site, an applicator having a rectangular plate-type heat-transfer surface with an area of 1.7 square inches was used to execute a cooling treatment at the first and second sites. […]

With `OC[C@H]1O[C@H](O[C@H]2O[C@H](CO)[C@@H](O)[C@H](O)[C@H]2O)[C@H](O)[C@@H](O)[C@@H]1O` [trehalose] the “reducing cryoinjury to skin cells” value was “effective”.
